From the OligoGym collection
Several values for one entry are separate records, joined by “and”; a condition that tells them apart may be missing. Equal values may be shown once. After the bases stand the sugars from the 5' end (letter, count) and the backbone: PS all phosphorothioate, else s phosphorothioate and o phosphodiester by linkage. Methylation of C is not given here. e = 2'-O-(2-methoxyethyl) (MOE); k = constrained ethyl (cEt); d = 2'-deoxy (DNA)

Biological target: IRF4
Conditions: ASO

Row | Sequence | target mRNA inhibition (SK-MEL-28, 4 µM) | target mRNA inhibition (MM.1R, 1 µM) | further results
1 | GTTGACACAGGAGCCG (sugars k3 d10 k3, PS) | 53% | – | –
2 | GAGGGAGCTCATTTTG (sugars k3 d10 k3, PS) | 24% | – | –
3 | CAATCATGATATTAGA (sugars k3 d10 k3, PS) | 38% | – | –
4 | GGTCACTTGGTTCTCT (sugars k3 d10 k3, PS) | 79% | – | –
5 | CAGTAAACGCAAGTCT (sugars k3 d10 k3, PS) | – | -14% | –
6 | ATCAGTCTCAAAAACG (sugars k3 d10 k3, PS) | 41% | – | –
7 | CCTTAGGAACGAAGAG (sugars k3 d10 k3, PS) | – | -6% | –
8 | TAGTGTTCCAGGAGAT (sugars k3 d10 k3, PS) | – | 53% | target mRNA inhibition (MM.1R, 0.074 µM): 15%; target mRNA inhibition (MM.1R, 0.222 µM): 29%; target mRNA inhibition (MM.1R, 0.666 µM): 52%; target mRNA inhibition (MM.1R, 2 µM): 80%
9 | ACTGTAAGGGCTGCTC (sugars k3 d10 k3, PS) | 69% | – | –
10 | TGGACCCACGAAGATT (sugars k3 d10 k3, PS) | 38% | – | –
11 | TTTTATGGACCACGCA (sugars k3 d10 k3, PS) | 31% | – | –
12 | TGCTTGAGGTTTTCCT (sugars kkdddddddddekeke, PS) | – | 45% | –
13 | GGCCTCCCCAAGGCTA (sugars k3 d10 k3, PS) | 18% | – | –
14 | GGGCATGTGACTGGAG (sugars k3 d10 k3, PS) | 50% | – | –
15 | TCGCCCATGAGTTGAA (sugars k3 d10 k3, PS) | 39% | – | –
16 | TGCCTTACCTGACAAG (sugars k3 d10 k3, PS) | – | 4% | –
17 | GGCGAGTGGCGGGTAG (sugars k3 d10 k3, PS) | 8% | – | –
18 | ACAGGCGCGGACGCAC (sugars k3 d10 k3, PS) | 20% | – | –
19 | CTAATGGTGCTCCTAA (sugars k3 d10 k3, PS) | – | 4% | –
20 | CCACAGAGGACTTCGG (sugars k3 d10 k3, PS) | 27% | – | –
21 | TCAACCGCTGAACTGA (sugars k3 d10 k3, PS) | 35% | – | –
22 | ACGCACGGAGAGGGCG (sugars k3 d10 k3, PS) | 1% | – | –
23 | TAGAATGCATAACACG (sugars k3 d10 k3, PS) | – | 8% | –
24 | GTAGGAGTGTAACTGA (sugars k3 d10 k3, PS) | 41% | – | –

Row | Sequence | target mRNA inhibition (SK-MEL-28, 4 µM) | target mRNA inhibition (MM.1R, 1 µM) | further results
25 | GCAAAGCAAGTGTCTA (sugars k3 d10 k3, PS) | 43% | – | –
26 | AGATAACATGAGAGTG (sugars k3 d10 k3, PS) | 41% | – | –
27 | TGTTACTTGCCACAGT (sugars k3 d10 k3, PS) | 39% | – | –
28 | ACGGGAATTTCCATTG (sugars k3 d10 k3, PS) | 67% | – | target mRNA inhibition (SK-MEL-28, 0.185 µM): 11% and 5% and 1%; target mRNA inhibition (SK-MEL-28, 5 µM): 57% and 61% and 82%; target mRNA inhibition (SK-MEL-28, 15 µM): 83% and 79% and 94%
29 | ACAGTCCACTCCACCC (sugars k3 d10 k3, PS) | – | 14% | –
30 | TTGGTTGGCTGGTCTT (sugars kkdddddddddkdkdk, PS) | – | 55% | –
31 | CGCCGGAGGCCGCCGT (sugars k3 d10 k3, PS) | 3% | – | –
32 | ATATAACGGTGTTTCA (sugars k3 d10 k3, PS) | 58% | – | –
33 | TCAGTTTGTGAAGCAT (sugars kdddddddddkekeke, PS) | – | 9% | –
34 | ATGAGGAAGCCGTTCC (sugars k3 d10 k3, PS) | 58% | – | –
35 | GGTCAGAATCTTGAAA (sugars k3 d10 k3, PS) | 9% | – | –
36 | ACGAACGCGCAAAACC (sugars k3 d10 k3, PS) | 6% | – | –
37 | GCACAGTCTCTTTTTA (sugars k3 d10 k3, PS) | 36% | – | –
38 | AGCTAAACTCCTAAGT (sugars k3 d10 k3, PS) | 15% | – | –
39 | TGTCAAACTATAATTG (sugars k3 d10 k3, PS) | 15% | – | –
40 | AGTTGTAAATGAGTCG (sugars e1 k2 d9 k2 e2, PS) | – | 49% | –
41 | TGGCACGAGGAAGCAT (sugars k3 d10 k3, PS) | 46% | – | –
42 | TGACAGCCGAAGCATT (sugars k3 d10 k3, PS) | 38% | – | –
43 | GGCTAGCTGTATTTAT (sugars k3 d10 k3, PS) | 37% | – | –
44 | CACCATGGCACAGTCT (sugars k3 d10 k3, PS) | 79% | – | –
45 | GGAGTGATCTCTGTGG (sugars k3 d10 k3, PS) | 68% | – | –
46 | AATGTGTATTACTCTT (sugars kkddddddddddkeke, PS) | – | 8% and 22% | –
47 | AAGATCTCCATGGTGC (sugars k3 d10 k3, PS) | – | 39% and 29% | target mRNA inhibition (MM.1R, 0.0625 µM): 4%; target mRNA inhibition (MM.1R, 0.25 µM): 10%; target mRNA inhibition (MM.1R, 4 µM): 56%
48 | GTTGTAAATGAGTCGG (sugars k2 d9 e3 k2, PS) | – | 82% | target mRNA inhibition (H929, 0.00067 µM): 6%; target mRNA inhibition (H929, 0.002 µM): 21%; target mRNA inhibition (H929, 0.00667 µM): 45%; target mRNA inhibition (H929, 0.02 µM): 57%; target mRNA inhibition (H929, 0.04 µM): 13%; target mRNA inhibition (KMS11, 0.2 µM): 50% and 44%; target mRNA inhibition (MM.1R, 0.074 µM): 26%; target mRNA inhibition (MM.1R, 0.222 µM): 53%; target mRNA inhibition (MM.1R, 0.666 µM): 76%; target mRNA inhibition (MM.1R, 2 µM): 93%

Row | Sequence | target mRNA inhibition (SK-MEL-28, 4 µM) | target mRNA inhibition (MM.1R, 1 µM) | further results
49 | TCACGAAACACAGTCT (sugars k3 d10 k3, PS) | 68% | – | –
50 | ACTTAAGCTAAACTCC (sugars k3 d10 k3, PS) | 21% | – | –
51 | TGGGATTATATACTGG (sugars k2 d9 e3 k2, PS) | – | 54% | –
52 | GTAAACTGAAAGACCC (sugars k3 d10 k3, PS) | 35% | – | –
53 | TAGTATGAGAAACGGC (sugars kkdddddddddekeke, PS) | – | 50% | –
54 | GACACATTTTCTGGGT (sugars k3 d10 k3, PS) | 53% and 64% | – | –
55 | CGCCAGCCAGATGTTT (sugars k3 d10 k3, PS) | – | -15% | –
56 | CATCTAATCCACAATC (sugars k3 d10 k3, PS) | – | -19% | –
57 | GTGCTCATGGCTGATA (sugars k3 d10 k3, PS) | – | 24% | –
58 | GTCCACTGAGTACAAA (sugars k3 d10 k3, PS) | 13% | – | –
59 | CTATAGTGTTCCAGGA (sugars kkddddddddddkeke, PS) | – | 36% | –
60 | AACCGGTAGAGTGAGA (sugars k3 d10 k3, PS) | 6% | – | –
61 | TAGCATGTATGCATTC (sugars k3 d10 k3, PS) | 52% | – | –
62 | AGTGACTTGCATCCAT (sugars kkdddddddddkekek, PS) | – | 27% | –
63 | ACCCACATCACTGTCT (sugars k3 d10 k3, PS) | 15% | – | –
64 | TGTGTATTACTCTTAG (sugars kkddddddddddkeke, PS) | – | 51% and 39% | –
65 | CATTTCATTTAATGTC (sugars k3 d10 k3, PS) | 33% | – | –
66 | GAGCACATGTCAACAG (sugars k3 d10 k3, PS) | 40% | – | –
67 | GATCATCAATGATGGC (sugars k3 d10 k3, PS) | 63% | – | –
68 | CTAAATCACCCTGGTC (sugars k3 d10 k3, PS) | 47% | – | –
69 | AGCTACAAAGAGCACT (sugars k3 d10 k3, PS) | 33% | – | –
70 | AAACTATAATTGGCAC (sugars k3 d10 k3, PS) | 30% | – | –
71 | GACAGTGACTTGCATC (sugars kkdddddddddkdkdk, PS) | – | -7% | –
72 | TTGAAATAAGCTCATC (sugars k3 d10 k3, PS) | 33% | – | –

Row | Sequence | target mRNA inhibition (SK-MEL-28, 4 µM) | target mRNA inhibition (MM.1R, 1 µM) | further results
73 | ATTCTTAGAATGCATA (sugars k4 d8 k4, PS) | 33% | – | –
74 | CCTTTAGTGTCGCCAT (sugars k3 d10 k3, PS) | 58% | – | –
75 | GAAGTTTACACTGGAT (sugars kkdddddddddkdkdk, PS) | – | 23% | –
76 | AGCAATTAGCTCTTCT (sugars k3 d10 k3, PS) | – | 11% | –
77 | TGGACACTTTTAGAGA (sugars k3 d10 k3, PS) | 72% | – | –
78 | TCCTTTCCTACAGATC (sugars k3 d10 k3, PS) | 33% | – | –
79 | ACTAATTCCATAGAGC (sugars k3 d10 k3, PS) | 79% | -17% | target mRNA inhibition (MM.1R, 0.0625 µM): -18%; target mRNA inhibition (MM.1R, 0.074 µM): -12%; target mRNA inhibition (MM.1R, 0.222 µM): -13%; target mRNA inhibition (MM.1R, 0.25 µM): -12%; target mRNA inhibition (MM.1R, 0.666 µM): -10%; target mRNA inhibition (MM.1R, 2 µM): -4%; target mRNA inhibition (MM.1R, 4 µM): -6%
80 | ACAAAACGGACTGGAA (sugars k3 d10 k3, PS) | 14% | – | –
81 | CGCATAGAGCCCGTCG (sugars k3 d10 k3, PS) | 53% | – | –
82 | TCACATGATAAGGCAC (sugars k3 d10 k3, PS) | – | 19% | –
83 | CTGATGTGTTCTGGTA (sugars k3 d10 k3, PS) | – | 45% and 53% | target mRNA inhibition (MM.1R, 0.0625 µM): 14% and 36%; target mRNA inhibition (MM.1R, 0.25 µM): 27% and 41%; target mRNA inhibition (MM.1R, 4 µM): 69% and 70%
84 | TGTTACCGATGCTTCA (sugars kddddddddddkekek, PS) | – | 26% and 18% | –
85 | GTGCAGACCTGAATAG (sugars k3 d10 k3, PS) | 14% | – | –
86 | GCATTTTATCATCCGA (sugars kkdddddddddkekek, PS) | – | 48% | –
87 | TGTAACTGACTAACAG (sugars k3 d10 k3, PS) | – | -31% | –
88 | GGAAGTTTACACTGGA (sugars e1 k2 d9 k2 e2, PS) | – | 55% | target mRNA inhibition (H929, 0.04 µM): 38% and 36%; target mRNA inhibition (KMS11, 0.2 µM): 75% and 80%; target mRNA inhibition (MM.1R, 0.074 µM): 13%; target mRNA inhibition (MM.1R, 0.222 µM): 35%; target mRNA inhibition (MM.1R, 0.666 µM): 66%; target mRNA inhibition (MM.1R, 2 µM): 87%
89 | CTTGAAGAGCGCGGCG (sugars k3 d10 k3, PS) | 21% | – | –
90 | GTAGTATGAGAAACGG (sugars kkdddddddddekeke, PS) | – | 35% | –
91 | GTTTTTTGACTCAAGA (sugars k3 d10 k3, PS) | 67% | – | –
92 | TCCTAGGTTTCAGTTG (sugars k3 d10 k3, PS) | 48% | – | –
93 | TAGGAGTGTAACTGAG (sugars k3 d10 k3, PS) | 37% | – | –
